Legend:
Type in all cases: biochemical
CDK1/CyclinB = molecular target: T1, CDK1/CyclinB (Homo sapiens, UniProt P06493); experiment: CDK1/CyclinB kinase inhibitory activity (Caliper mobility shift); conditions: enzyme 3 nM, ATP 20 μM, 28° C. 30 min; read-out: CDK1/Cyclin B1 IC50
T1 construct: purchased Millipore 14-450M
Description: CDK1/CyclinB kinase inhibitory activity (IC50): 5 μl of various dilutions of test compound in 1× kinase buffer (50 mM HEPES pH 7.5, 10 mM MgCl2, 2 mM DTT and 0.01% Brij-35) was mixed with 10 μL of CDK1/CyclinB (Millipore, 14-450M #, final concentration 3 nM in 1× Kinase buffer) in 384 plates and incubated at room temperature for 10 min. To initiate each reaction, 10 μL of peptide solution containing fluorescently-labeled-peptide 18(5-FAM-QSPKKG-CONH2) (GL, 114202 #, final concentration 3000 nM) and ATP (final concentration 20 μM) in 1× Kinase buffer was added to each of the wells containing test compound and CDK1/CyclinB mixture. The reaction is then allowed to proceed at 28° C. for 30 min and terminated by the addition of 25 μL stop buffer (100 mM HEPES pH 7.5, 50 mM EDTA, 0.2% Coating Reagent #3 (Perkin Elmer, 760050 #) and 0.015% Brij-35).
(§1) Following the kinase reaction, Caliper EZ reader II (Downstream voltages: −500V, Upstream voltages: −2250V, Base pressure −0.5 PSI, Screen pressure −1.2 PSI) was used to separate the phosphorylated (product) and the unphosphorylated (substrate) fluorescently-labeled peptide 18 based on their different mobility. Both substrate and product were measured and the ratio of these values were used to generate % conversion by Caliper EZ reader II. These conversion values were then transformed into % inhibition of kinase activity using the formula: % Inhibition=[(MA−X)/(MA−MI)]×100% where MA=conversion value of DMSO only controls, MI=conversion value of no enzyme controls and X=conversion value at any given compound dose. IC50 values were then calculated by plotting dose-response curves and then using the XLfit application in Excel software.

CDK9/CyclinT1 = molecular target: T2, CDK9/CyclinT1 (Homo sapiens, UniProt P50750); experiment: CDK9/CyclinT1 kinase inhibitory activity (Caliper mobility shift); conditions: enzyme 12.5 nM, ATP 10M, 28° C. 30 min; read-out: CDK9/Cyclin T1 IC50
T2 construct: purchased Millipore 14-685M
Description: (§2) CDK9/CyclinT1 kinase inhibitory activity (IC50): 5 μl of various dilutions of test compound in 1× kinase buffer (20 mM HEPES, pH 7.5, 10 mM MgCl2, 2 mM DTT and 0.01% Triton X-100) was mixed with 10 μL of CDK9/CyclinT1 (Millipore, 14-685M #, final concentration 12.5 nM in 1× Kinase buffer) in 384 plates and incubated at room temperature for 10 min. To initiate each reaction, 10 μL of peptide solution containing fluorescently-labeled -peptide CTD3 (5-FAM-[…], GL, SY346885 #, final concentration 3000 nM) and ATP (final concentration 10M) in 1× Kinase buffer was added to each of the wells containing test compound and CDK9/CyclinT1 mixture. The reaction is then allowed to proceed at 28° C. for 30 min and terminated by the addition of 25 μL stop buffer (100 mM HEPES pH 7.5, 50 mM EDTA, 0.2% Coating Reagent #3 (Perkin Elmer, 760050 #) and 0.015% Brij-35).
as §1, with “CTD3” for “18”

CDK7/CyclinH/MAT1 = molecular target: T3, CDK7/CyclinH/MAT1 (Homo sapiens, UniProt P50613); experiment: CDK7/CyclinH/MAT1 kinase inhibitory activity (Caliper mobility shift); conditions: enzyme 12.5 nM, ATP 70 μM, 28° C. 30 min; read-out: CDK7/Cyclin H/MAT1 IC50
T3 construct: purchased Millipore 14-476M
Description: as §2, with “CDK7/CyclinH/MAT1” for “CDK9/CyclinT1”, “14-476M” for “14-685M”, “fluorescently-labeled-peptide” for “fluorescently-labeled -peptide”, “70 μM)” for “10M)”
as §1, with “the phosphoiylated” for “the phosphorylated”, “peptide CTD3” for “peptide 18”

T1 sequence (P06493 whole entry): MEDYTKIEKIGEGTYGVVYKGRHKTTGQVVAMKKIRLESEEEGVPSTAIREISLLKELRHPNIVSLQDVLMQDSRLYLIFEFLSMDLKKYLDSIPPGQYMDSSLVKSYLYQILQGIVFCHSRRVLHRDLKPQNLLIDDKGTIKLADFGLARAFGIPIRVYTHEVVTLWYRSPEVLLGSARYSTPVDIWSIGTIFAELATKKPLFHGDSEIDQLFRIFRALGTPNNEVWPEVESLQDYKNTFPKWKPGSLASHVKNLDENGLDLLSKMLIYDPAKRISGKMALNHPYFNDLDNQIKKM
T1 sequence (P14635 whole entry partner): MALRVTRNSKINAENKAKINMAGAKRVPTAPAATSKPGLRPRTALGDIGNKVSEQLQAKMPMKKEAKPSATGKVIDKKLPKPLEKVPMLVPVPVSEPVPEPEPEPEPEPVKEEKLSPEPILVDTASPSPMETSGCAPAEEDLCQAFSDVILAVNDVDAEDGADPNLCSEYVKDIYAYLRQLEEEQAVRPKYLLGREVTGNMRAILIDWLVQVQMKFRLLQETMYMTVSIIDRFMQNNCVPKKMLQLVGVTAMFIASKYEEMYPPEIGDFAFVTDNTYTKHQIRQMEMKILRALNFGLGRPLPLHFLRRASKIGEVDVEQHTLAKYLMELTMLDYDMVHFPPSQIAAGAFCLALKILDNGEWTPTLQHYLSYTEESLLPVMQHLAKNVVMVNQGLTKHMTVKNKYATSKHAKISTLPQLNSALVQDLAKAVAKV
T3 sequence (P50613 whole entry): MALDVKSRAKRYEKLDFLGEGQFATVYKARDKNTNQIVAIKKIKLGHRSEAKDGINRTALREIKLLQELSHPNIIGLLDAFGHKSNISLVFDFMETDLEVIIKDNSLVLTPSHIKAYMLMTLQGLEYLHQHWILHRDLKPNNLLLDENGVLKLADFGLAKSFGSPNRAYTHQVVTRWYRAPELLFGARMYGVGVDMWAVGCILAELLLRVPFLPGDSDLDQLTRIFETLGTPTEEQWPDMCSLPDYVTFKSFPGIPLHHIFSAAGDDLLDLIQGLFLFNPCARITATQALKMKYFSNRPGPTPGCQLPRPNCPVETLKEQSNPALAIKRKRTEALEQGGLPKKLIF
T3 sequence (P51946 whole entry partner): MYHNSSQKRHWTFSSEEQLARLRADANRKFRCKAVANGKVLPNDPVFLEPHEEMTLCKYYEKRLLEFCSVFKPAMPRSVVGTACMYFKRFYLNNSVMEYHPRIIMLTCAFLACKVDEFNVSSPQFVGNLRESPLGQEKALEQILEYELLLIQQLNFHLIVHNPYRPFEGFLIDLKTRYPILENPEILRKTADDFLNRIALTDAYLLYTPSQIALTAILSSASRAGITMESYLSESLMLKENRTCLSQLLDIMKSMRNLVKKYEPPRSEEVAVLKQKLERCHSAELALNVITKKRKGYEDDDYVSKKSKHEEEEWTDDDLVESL
T3 sequence (P51948 whole entry partner): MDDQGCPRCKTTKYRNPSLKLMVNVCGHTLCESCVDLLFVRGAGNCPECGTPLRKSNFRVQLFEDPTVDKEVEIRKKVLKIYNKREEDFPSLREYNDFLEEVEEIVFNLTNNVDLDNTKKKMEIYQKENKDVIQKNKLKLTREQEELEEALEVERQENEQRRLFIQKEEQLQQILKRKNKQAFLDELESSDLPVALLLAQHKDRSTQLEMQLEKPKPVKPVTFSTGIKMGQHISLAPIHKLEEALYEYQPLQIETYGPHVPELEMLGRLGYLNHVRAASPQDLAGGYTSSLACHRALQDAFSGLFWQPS
T2 sequence (P50750 whole entry): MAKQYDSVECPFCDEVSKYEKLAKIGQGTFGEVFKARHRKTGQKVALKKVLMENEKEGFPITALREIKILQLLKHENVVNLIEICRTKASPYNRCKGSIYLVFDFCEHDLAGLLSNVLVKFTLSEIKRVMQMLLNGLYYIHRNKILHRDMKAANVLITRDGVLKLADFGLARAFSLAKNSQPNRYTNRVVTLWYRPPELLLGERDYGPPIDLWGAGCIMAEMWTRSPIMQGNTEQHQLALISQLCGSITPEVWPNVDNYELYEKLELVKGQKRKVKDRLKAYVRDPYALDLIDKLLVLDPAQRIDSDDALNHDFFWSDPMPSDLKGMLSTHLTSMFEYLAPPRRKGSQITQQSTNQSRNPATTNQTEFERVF
T2 sequence (O60563 whole entry partner): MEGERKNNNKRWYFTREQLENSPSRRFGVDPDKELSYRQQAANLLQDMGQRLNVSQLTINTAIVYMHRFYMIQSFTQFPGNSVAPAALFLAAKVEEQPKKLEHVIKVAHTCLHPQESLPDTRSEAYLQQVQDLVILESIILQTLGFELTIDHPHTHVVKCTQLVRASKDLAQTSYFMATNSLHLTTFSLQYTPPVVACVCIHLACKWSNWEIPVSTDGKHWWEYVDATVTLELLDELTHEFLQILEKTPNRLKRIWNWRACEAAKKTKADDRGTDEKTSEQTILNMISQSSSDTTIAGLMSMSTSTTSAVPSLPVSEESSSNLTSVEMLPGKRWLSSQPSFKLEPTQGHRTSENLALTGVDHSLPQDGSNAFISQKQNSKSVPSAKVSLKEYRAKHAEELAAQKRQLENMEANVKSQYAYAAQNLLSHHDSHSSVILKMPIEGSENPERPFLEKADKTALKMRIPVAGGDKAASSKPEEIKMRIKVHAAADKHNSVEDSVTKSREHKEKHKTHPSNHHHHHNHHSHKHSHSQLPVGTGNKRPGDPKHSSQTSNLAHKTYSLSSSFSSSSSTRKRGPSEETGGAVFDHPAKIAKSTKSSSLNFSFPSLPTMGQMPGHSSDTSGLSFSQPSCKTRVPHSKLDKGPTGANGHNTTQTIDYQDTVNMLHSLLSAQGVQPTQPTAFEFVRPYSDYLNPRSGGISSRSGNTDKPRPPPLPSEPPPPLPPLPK

Row | SMILES | IC50 (CDK1/CyclinB) [µM] | IC50 (CDK9/CyclinT1) [µM] | IC50 (CDK7/CyclinH/MAT1) [µM]
1 | CC(C)(O)c1cnc2c(F)cc(-c3nc(N[C@@H]4CCOC[C@H]4O)ncc3F)cc2c1Cl [Example 22, (3S,4R)-4-((4-(4-chloro-8-fluoro-3-(2-hydroxypropan-2-yl)quinolin-6-yl)-5-fluoropyrimidin-2-yl)amino)tetrahydro-2H-pyran-3-ol] | 0.1 to 1 | 0.1 to 1 | 0.1 to 1
2 | Cc1[nH]cnc1-c1cnc2c(F)cc(-c3nc(N[C@@H]4CCOC[C@H]4O)ncc3Cl)cc2c1 [Example 18, (3S,4R)-4-((5-chloro-4-(8-fluoro-3-(5-methyl-1H-imidazol-4-yl)quinolin-6-yl)pyrimidin-2-yl)amino)tetrahydro-2H-pyran-3-ol] | 0.1 to 1 | ≥ 1 | ≥ 1
3 | Cc1c(C(C)(C)O)cnc2c(F)cc(-c3nc(N[C@@H]4CCOC[C@H]4O)ncc3F)cc12 [Example 23, (3S,4R)-4-((5-fluoro-4-(8-fluoro-3-(2-hydroxypropan-2-yl)-4-methylquinolin-6-yl)pyrimidin-2-yl)amino)tetrahydro-2H-pyran-3-ol] | 0.1 to 1 | 0.1 to 1 | 0.01 to 0.1
4 | O[C@@H]1COCC[C@H]1Nc1ncc(Cl)c(-c2cc(F)c3ncc4c(c3c2)C2CCC(C4)N2)n1 (single isomer, unassigned) [Example 20b] | 0.1 to 1 | 0.1 to 1 | 0.1 to 1
5 | Cc1c(C(C)(C)O)cnc2c(F)cc(-c3nc(N[C@@H]4CCOC[C@H]4O)ncc3Cl)cc12 [Example 7, (3S,4R)-4-((5-chloro-4-(8-fluoro-3-(2-hydroxypropan-2-yl)-4-methylquinolin-6-yl)pyrimidin-2-yl)amino)tetrahydro-2H-pyran-3-ol] | 0.1 to 1 | 0.1 to 1 | ≥ 1
6 | CC1(C)Cc2cnc3c(F)cc(-c4nc(N[C@@H]5CCOC[C@H]5O)ncc4F)cc3c2CN1 [Example 24, (3S,4R)-4-((5-fluoro-4-(7-fluoro-3,3-dimethyl-1,2,3,4-tetrahydrobenzo[c][2,6]naphthyridin-9-yl)pyrimidin-2-yl)amino)tetrahydro-2H-pyran-3-ol] | 0.1 to 1 | 0.01 to 0.1 | 0.1 to 1
7 | O[C@@H]1COCC[C@H]1Nc1cc(-c2cc(F)c3ncc4c(c3c2)CNCC4)c(Cl)cn1 [Example 25] | 0.01 to 0.1 | 0.01 to 0.1 | 0.01 to 0.1
8 | CC(C)(N)c1cnc2c(F)cc(-c3nc(N[C@@H]4CCOC[C@H]4O)ncc3Cl)cc2c1 [Example 14, (3S,4R)-4-((4-(3-(2-aminopropan-2-yl)-8-fluoroquinolin-6-yl)-5-chloropyrimidin-2-yl)amino)tetrahydro-2H-pyran-3-ol] | 0.01 to 0.1 | 0.1 to 1 | 0.1 to 1
9 | O[C@@H]1COCC[C@H]1Nc1ncc(Cl)c(-c2cc(F)c3c(c2)N2CCNC[C@@H]2CO3)n1 [Example 19, (3S,4R)-4-((5-chloro-4-((R)-7-fluoro-1,2,3,4,4a,5-hexahydrobenzo[b]pyrazino[1,2-d][1,4]oxazin-9-yl)pyrimidin-2-yl)amino)tetrahydro-2H-pyran-3-ol] | 0.01 to 0.1 | 0.01 to 0.1 | 0.01 to 0.1
10 | O[C@@H]1COCC[C@H]1Nc1ncc(Cl)c(-c2cc(F)c3ncc4c(c3c2)CNC2(CC2)C4)n1 [Example 21, (3S,4R)-4-((5-chloro-4-(7-fluoro-1,4-dihydro-2H-spiro[benzo[c][2,6]naphthyridine-3,1′-cyclopropan]-9-yl)pyrimidin-2-yl)amino)tetrahydro-2H-pyran-3-ol] | 0.1 to 1 | 0.1 to 1 | ≥ 1
11 | O[C@@H]1COCC[C@H]1Nc1ncc(Cl)c(-c2cc(F)c3ncc4c(c3c2)CCNC4)n1 [Example 8, (3S,4R)-4-((5-chloro-4-(7-fluoro-1,2,3,4-tetrahydrobenzo[c][2,7]naphthyridin-9-yl)pyrimidin-2-yl)amino)tetrahydro-2H-pyran-3-ol] | 0.01 to 0.1 | 0.01 to 0.1 | 0.01 to 0.1
12 | CC(C)n1c(C(C)(C)O)nc2c(F)cc(-c3cc(N[C@@H]4CCOC[C@H]4O)ncc3Cl)cc21 [Example 12, (3S,4R)-4-((5-chloro-4-(4-fluoro-2-(2-hydroxypropan-2-yl)-1-isopropyl-1H-benzo[d]imidazol-6-yl)pyridin-2-yl)amino)tetrahydro-2H-pyran-3-ol] | ≥ 1 | 0.1 to 1 | ≥ 1
13 | Cc1nc2c(F)cc(-c3nc(N[C@@H]4CCOC[C@H]4O)ncc3Cl)cc2c(C)c1[C@@H](C)O (single isomer, unassigned) [Example 15a] | 0.1 to 1 | 0.1 to 1 | ≥ 1

Further lines, results first:

Row | IC50 (CDK1/CyclinB) [µM] | IC50 (CDK9/CyclinT1) [µM] | IC50 (CDK7/CyclinH/MAT1) [µM] | SMILES
14 | 0.1 to 1 | 0.01 to 0.1 | 0.1 to 1 | Cc1nc2c(F)cc(-c3nc(N[C@@H]4CCOC[C@H]4O)ncc3F)cc2c(C)c1C(C)O (single isomer, unassigned) [Example 81a]
15 | 0.01 to 0.1 | 0.01 to 0.1 | 0.01 to 0.1 | O[C@@H]1COCC[C@H]1Nc1ncc(F)c(-c2cc(F)c3ncc4c(c3c2)CNC2(CC2)C4)n1 [Example 56]
16 | 0.1 to 1 | 0.1 to 1 | 0.01 to 0.1 | [2H]c1nc2c(F)cc(-c3nc(N[C@@H]4CCOC[C@H]4O)ncc3F)cc2c(C)c1C(C)(C)O [Example 94]
17 | ≥ 1 | ≥ 1 | ≥ 1 | Cc1nc2c(F)cc(-c3nc(N[C@@H]4CCOC[C@H]4O)ncc3Cl)cc2c2c1CCN(C)C2 [Example 37]
18 | 0.1 to 1 | 0.1 to 1 | 0.1 to 1 | CC1(C)Cc2cnc3c(F)cc(-c4ccnc(N[C@@H]5CCOC[C@H]5O)n4)cc3c2CN1 [Example 107]
19 | ≥ 1 | ≥ 1 | ≥ 1 | Cc1c(C(C)NC2CC2)cnc2c(F)cc(-c3nc(N[C@@H]4CCOC[C@H]4O)ncc3Cl)cc12 (single isomer, unassigned) [Example 91b]
20 | 0.1 to 1 | 0.1 to 1 | ≥ 1 | CC(C)(N)c1cnc2ccc(-c3nc(N[C@@H]4CCOC[C@H]4O)ncc3Cl)cc2c1 [Example 26]
21 | 0.1 to 1 | 0.1 to 1 | ≥ 1 | Cc1nc2c(F)cc(-c3nc(N[C@@H]4CCOC[C@H]4O)ncc3Cl)cc2cc1C1CCCN1 (single isomer, unassigned) [Example 57a]

From US20260242395A1, “AMINOHETEROARYL KINASE INHIBITORS” (ALLORION THERAPEUTICS INC, priority 2022, published 2026)
